Each structure is given as a SMILES string.

For assay [1], the target named is T1, HIV integrase (recombinant integrase) (Human immunodeficiency virus type 1 group M subtype B, UniProt P04585).
T1 construct: HIV Integrase Assay: Strand Transfer Catalyzed by Recombinant Integrase
The assay is described as follows: HIV integrase assay: strand transfer catalyzed by recombinant integrase. In kind it is biochemical. On the procedure: HIV Integrase Assay: Strand Transfer Catalyzed by Recombinant Integrase
Assays for the strand transfer activity of integrase were conducted in accordance with the method described in Example 193 of WO 02/30930 for recombinant integrase.
Further description on conducting the assay using preassembled complexes is found in Wolfe, A. L. et al., J. Virol. 1996, 70: 1424-1432, Hazuda et al., J. Virol. 1997, 71: 7005-7011; Hazuda et al., Drug Design and Discovery 1997, 15: 17-24; and Hazuda et al., Science 2000, 287: 646-650.

In assay [2] the test system is HIV mutants that are resistant to other integrase inhibitors. The assay can be described thus: Antiviral activity against HIV mutants resistant to other integrase inhibitors. In kind it is cell-based.
In another assay the test system is HIV. The assay can be described thus: Antiviral potency in the presence of human serum proteins. The format is cell-based. As to conditions: relative to closely related N-benzyl-8-hydroxy-1,6-naphthyridine carboxamide integrase inhibitors without ortho polar substituent.

Turning to `CNC(=O)c1cc(F)ccc1CNC(=O)c1nc(N2CCCCS2(=O)=O)c2cccnc2c1O` [Example 3, Sodium 5-(1,1-dioxido-1,2-thiazinan-2-yl)-7-[({4-fluoro-2-[(methylamino)carbonyl]-benzyl}amino)carbonyl]-1,6-naphthyridin-8-olate], in assay [1], the IC50 (usually the concentration needed to halve the response being measured) is less than 500 nM. On to `CNC(=O)c1cc(F)ccc1CNC(=O)c1nc(N2CCCCS2(=O)=O)c2cccnc2c1O` [Compound A, N-{4-fluoro-2-[(methylamino)carbonyl]benzyl}-5-(1,1-dioxido-1,2-thiazinan-2-yl)-8-hydroxy-1,6-naphthyridine-7-carboxamide], for which the “antiviral activity against several HIV mutants resistant to other integrase inhibitors” value in assay [2] is “retention of significant antiviral activity”. Also, the “antiviral potency in the presence of human serum proteins” value with HIV was “improved”.
